Patent US6201006A, “Aromatic amidine derivatives useful as selective thrombin inhibitors” (C & C Research Laboratories, priority 1996, dated 2001)
Where “and” joins values, the source holds several entries; their conditions need not be identical. Equal entries are not always repeated. Where two headings read alike, the source gives them in different places.

Experiments:
[1] = tested on: thrombin time (TT) in rat plasma; test: Thrombin time (TT) in rat plasma after oral administration; format: in vivo, SD male rats; settings: TT after / TT before administration
Experimental: SD male rats weighing 220±20 g which had fasted overnight were used as experimental animals. Blood taken from the hearts of the experimental animals just before administration of the test compound and at 30, 60, 120 and 240 minutes after oral administration of the test compound was mixed with 0.108M sodium citrate in the ratio of 9:1. The mixtures thereby obtained were centrifuged at 15,000 rpm for 5 minutes at 4° C. to separate the plasma, which was stored at -20° C. until the TT was measured by means of the method described below.
200 μl of Owren's buffer was added to 50 μl of the plasma and 100 μl of the diluted plasma thereby obtained was injected into the vial of a coagulometer and then incubated for 2 minutes at 37° C. To each vial was added 100 μl of thrombin at a concentration of 20 U/ml, which had prewarmed at 37° C., to measure the time (TT) until clotting occurred. The ratio of the TT in rat plasma after administration of the test compound to the TT in rat plasma before administration of the test compound was calculated.

human thrombin = molecular target: T1, human thrombin (Homo sapiens, UniProt P00734); test: Inhibitory activity for thrombin (chromogenic substrate hydrolysis, 405 nm); format: biochemical
T1 construct: purchased Sigma T-6759
How it was run: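 Thrombin: human enzyme (5 units/ml stock, 0.1% BSA) acted for 20 min on N-benzoyl-Phe-Val-Arg-p-nitroanilide in 125 mM NaCl, 50 mM Tris-HCl pH 8.0, with compounds dissolved in 50% methanol. Hydrolysis was read at 405 nm. Selectivity index was trypsin IC50 divided by thrombin IC50.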

[2] = Pharmacokinetic test in rats (intravenous injection and oral administration); format: in vivo, S.D. male rats; settings: for bioavailability: oral vs intravenous
Experimental: S.D. male rats weighing 200±20 g which had fasted overnight were subjected to cannulation at their femoral veins and arteries. Compound 88 prepared in Example 62 was dissolved in physiological saline and then administered to the rats both by intravenous injection and oral administration. Blood was taken at prescribed intervals of time and then immediately mixed with methanol. The mixture was centrifuged (15,000 rpm, 5 min., 4° C.) to obtain quantitative amount of the supernatant which was then subjected to HPLC in Diode Array Detector at 254 nm to analyse the concentration of the test compound in the blood.

Selectivity (trypsin/thrombin) (human thrombin; IC50 for trypsin divided by IC50 for thrombin): 8.1 | IC50 (human thrombin; human thrombin, 20 min, pH 8.0, N-benzoyl-Phe-Val-Arg-p-nitroanilide): 15.9 nM | Blood concentration, individual rats (Rat-1 to Rat-5) ([2]; i.v. 10 mg/kg, 0.000 h): 0.000 µg/mL | Blood concentration, individual rats (Rat-1 to Rat-5) ([2]; i.v. 10 mg/kg, 2.000 h, 10 mg/kg): 0.000 µg/mL | Blood concentration, individual rats (Rat-1 to Rat-5) ([2]; i.v. 10 mg/kg, 4.000 h, 10 mg/kg): 0.000 µg/mL | Blood concentration, individual rats (Rat-1 to Rat-5) ([2]; i.v. 10 mg/kg, 4.000 h, 10 mg/kg, 240 min): 0.121 µg/mL and 0.055 µg/mL | Blood concentration, individual rats (Rat-1 to Rat-5) ([2]; i.v. 10 mg/kg, 6.000 h, 10 mg/kg): 0.000 µg/mL | Blood concentration, individual rats (Rat-1 to Rat-5) ([2]; i.v. 10 mg/kg, 6.000 h, 10 mg/kg, 360 min): 0.051 µg/mL | Blood concentration, individual rats (Rat-1 to Rat-5) ([2]; i.v. 10 mg/kg, 24.000 h): 0.000 µg/mL | Blood concentration, individual rats (Rat-1 to Rat-5) ([2]; oral 100 mg/kg, 0.000 h): 0.000 µg/mL | Blood concentration, individual rats (Rat-1 to Rat-5) ([2]; oral 100 mg/kg, 2.000 h, 100 mg/kg): 0.000 µg/mL | Blood concentration, individual rats (Rat-1 to Rat-5) ([2]; oral 100 mg/kg, 4.000 h, 100 mg/kg): 0.000 µg/mL | Blood concentration, individual rats (Rat-1 to Rat-5) ([2]; oral 100 mg/kg, 4.000 h, 100 mg/kg, 240 min): 0.121 µg/mL and 0.055 µg/mL | Blood concentration, individual rats (Rat-1 to Rat-5) ([2]; oral 100 mg/kg, 6.000 h, 100 mg/kg): 0.000 µg/mL | Blood concentration, individual rats (Rat-1 to Rat-5) ([2]; oral 100 mg/kg, 6.000 h, 100 mg/kg, 360 min): 0.051 µg/mL | Blood concentration, individual rats (Rat-1 to Rat-5) ([2]; oral 100 mg/kg, 24.000 h): 0.000 µg/mL | concentration at 0.083 h ([2]; rat, blood, iv, 10 mg/kg, i.v. 10 mg/kg, 0.083 h, read-out: Blood concentration, individual rats (Rat-1 to Rat-5)): 8790 ng/mL | concentration at 6 h ([2]; rat, blood, iv, 10 mg/kg, i.v. 10 mg/kg, 6.000 h, read-out: Blood concentration, individual rats (Rat-1 to Rat-5)): 90 ng/mL | concentration at 0.033 h ([2]; rat, blood, iv, 10 mg/kg, rats, i.v. 10 mg/kg, 0.033 h): 21700 ng/mL | concentration at 0.083 h ([2]; rat, blood, iv, 10 mg/kg, rats, i.v. 10 mg/kg, 0.083 h, read-out: Blood concentration, Mean): 11500 ng/mL | concentration at 0.25 h ([2]; rat, blood, iv, 10 mg/kg, rats, i.v. 10 mg/kg, 0.250 h): 4150 ng/mL | concentration at 0.5 h ([2]; rat, blood, iv, 10 mg/kg, rats, i.v. 10 mg/kg, 0.500 h): 1780 ng/mL | concentration at 1 h ([2]; rat, blood, iv, 10 mg/kg, rats, i.v. 10 mg/kg, 1.000 h): 775 ng/mL | concentration at 2 h ([2]; rat, blood, iv, 10 mg/kg, rats, i.v. 10 mg/kg, 2.000 h): 178 ng/mL | concentration at 4 h ([2]; rat, blood, iv, 10 mg/kg, rats, i.v. 10 mg/kg, 4.000 h): 35 ng/mL | concentration at 6 h ([2]; rat, blood, iv, 10 mg/kg, rats, i.v. 10 mg/kg, 6.000 h, read-out: Blood concentration, Mean): 28 ng/mL | concentration at 0.083 h ([2]; rat, blood, po, 100 mg/kg, oral 100 mg/kg, 0.083 h, read-out: Blood concentration, individual rats (Rat-1 to Rat-5)): 8790 ng/mL | concentration at 6 h ([2]; rat, blood, po, 100 mg/kg, oral 100 mg/kg, 6.000 h, read-out: Blood concentration, individual rats (Rat-1 to Rat-5)): 90 ng/mL | concentration at 0.033 h ([2]; rat, blood, po, 100 mg/kg, rats, oral 100 mg/kg, 0.033 h): 21700 ng/mL | concentration at 0.083 h ([2]; rat, blood, po, 100 mg/kg, rats, oral 100 mg/kg, 0.083 h, read-out: Blood concentration, Mean): 11500 ng/mL | concentration at 0.25 h ([2]; rat, blood, po, 100 mg/kg, rats, oral 100 mg/kg, 0.250 h): 4150 ng/mL | concentration at 0.5 h ([2]; rat, blood, po, 100 mg/kg, rats, oral 100 mg/kg, 0.500 h): 1780 ng/mL | concentration at 1 h ([2]; rat, blood, po, 100 mg/kg, rats, oral 100 mg/kg, 1.000 h): 775 ng/mL | concentration at 2 h ([2]; rat, blood, po, 100 mg/kg, rats, oral 100 mg/kg, 2.000 h): 178 ng/mL | concentration at 4 h ([2]; rat, blood, po, 100 mg/kg, rats, oral 100 mg/kg, 4.000 h): 35 ng/mL | concentration at 6 h ([2]; rat, blood, po, 100 mg/kg, rats, oral 100 mg/kg, 6.000 h, read-out: Blood concentration, Mean): 28 ng/mL | bioavailability ([2]; rat, blood, po, rats, read-out: Bioavailability): 32.6% | half-life ([2]; rat, blood, rats, mean ± error, read-out: Elimination Half-life (converted)): 64.2 ± 16.2 min | half-life ([2]; rat, blood, rats, read-out: elimination half-time): 64 min | Blood concentration, Mean ([2]; rats, i.v. 10 mg/kg, 0.000 h): 0.000 µg/mL | Blood concentration, Mean ([2]; rats, i.v. 10 mg/kg, 24.000 h): 0.000 µg/mL | Blood concentration, Mean ([2]; rats, oral 100 mg/kg, 0.000 h): 0.000 µg/mL | Blood concentration, Mean ([2]; rats, oral 100 mg/kg, 24.000 h): 0.000 µg/mL | bioavailability ([2]; rats): 32.62 ± 7.69%
SMILES: CCn1c(CC[C@@H]2CCCN2C(=O)[C@H]2CCCN2CC(=O)O)cc2ccc(C(=N)N)cc21 [Compound 88, 2-[(R)-2-[[(S)-2-[2-(6-amidino-1-ethylindol-2-yl)ethyl]pyrrolidinyl]carbonyl]pyrrolidinyl]acetic acid]
Plasma TT ratio after administration to rat ([1]; 30 mg/kg oral): 2.62 | Plasma TT ratio after administration to rat ([1]; 50 mg/kg oral): 7.83 | Blood concentration, individual rats (Rat-1 to Rat-5) ([2]; i.v. 10 mg/kg, 0.033 h, 10 mg/kg, 1.98 min): 11.186 µg/mL and 25.999 µg/mL and 23.841 µg/mL and 28.971 µg/mL and 18.505 µg/mL | Blood concentration, individual rats (Rat-1 to Rat-5) ([2]; i.v. 10 mg/kg, 0.083 h, 10 mg/kg, 4.98 min): 11.984 µg/mL and 10.776 µg/mL and 14.222 µg/mL and 11.623 µg/mL | Blood concentration, individual rats (Rat-1 to Rat-5) ([2]; i.v. 10 mg/kg, 0.250 h, 10 mg/kg, 15 min): 2.707 µg/mL and 4.629 µg/mL and 3.531 µg/mL and 5.982 µg/mL and 3.895 µg/mL | Blood concentration, individual rats (Rat-1 to Rat-5) ([2]; i.v. 10 mg/kg, 0.500 h, 10 mg/kg, 30 min): 0.816 µg/mL and 1.963 µg/mL and 1.685 µg/mL and 2.939 µg/mL and 1.516 µg/mL | Blood concentration, individual rats (Rat-1 to Rat-5) ([2]; i.v. 10 mg/kg, 1.000 h, 10 mg/kg, 60 min): 0.784 µg/mL and 0.773 µg/mL and 0.577 µg/mL and 1.204 µg/mL and 0.535 µg/mL | Blood concentration, individual rats (Rat-1 to Rat-5) ([2]; i.v. 10 mg/kg, 2.000 h, 10 mg/kg, 120 min): 0.204 µg/mL and 0.098 µg/mL and 0.424 µg/mL and 0.162 µg/mL | Blood concentration, individual rats (Rat-1 to Rat-5) ([2]; oral 100 mg/kg, 0.033 h, 100 mg/kg, 1.98 min): 11.186 µg/mL and 25.999 µg/mL and 23.841 µg/mL and 28.971 µg/mL and 18.505 µg/mL | Blood concentration, individual rats (Rat-1 to Rat-5) ([2]; oral 100 mg/kg, 0.083 h, 100 mg/kg, 4.98 min): 11.984 µg/mL and 10.776 µg/mL and 14.222 µg/mL and 11.623 µg/mL | Blood concentration, individual rats (Rat-1 to Rat-5) ([2]; oral 100 mg/kg, 0.250 h, 100 mg/kg, 15 min): 2.707 µg/mL and 4.629 µg/mL and 3.531 µg/mL and 5.982 µg/mL and 3.895 µg/mL | Blood concentration, individual rats (Rat-1 to Rat-5) ([2]; oral 100 mg/kg, 0.500 h, 100 mg/kg, 30 min): 0.816 µg/mL and 1.963 µg/mL and 1.685 µg/mL and 2.939 µg/mL and 1.516 µg/mL | Blood concentration, individual rats (Rat-1 to Rat-5) ([2]; oral 100 mg/kg, 1.000 h, 100 mg/kg, 60 min): 0.784 µg/mL and 0.773 µg/mL and 0.577 µg/mL and 1.204 µg/mL and 0.535 µg/mL | Blood concentration, individual rats (Rat-1 to Rat-5) ([2]; oral 100 mg/kg, 2.000 h, 100 mg/kg, 120 min): 0.204 µg/mL and 0.098 µg/mL and 0.424 µg/mL and 0.162 µg/mL | distribution and disappearance after intravenous injection ([2]; rats, intravenous injection): rapidly distributed in the body and slowly disappeared
